Measured values taken from PubChem BioAssay (NCI).
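Method: 48-hour compound exposure of cells in 96-well plates, five concentrations, linear interpolation of endpoints. GI50: concentration for 50% inhibition of growth. TGI marks complete inhibition of growth.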

Legend:
Experiment in all cases: NCI anticancer screen, dose series, 48 h; in the data active = GI50 below about 0.43 µM; inactive = the rest
HS 578T breast = tested on: HS 578T breast
SK-MEL-5 melanoma = tested on: SK-MEL-5 melanoma
SK-MEL-2 melanoma = tested on: SK-MEL-2 melanoma
SK-OV-3 ovarian = tested on: SK-OV-3 ovarian
HCC-2998 colon = tested on: HCC-2998 colon
MOLT-4 leukemia = tested on: MOLT-4 leukemia
786-0 renal = tested on: 786-0 renal
SF-268 CNS = tested on: SF-268 CNS
SR leukemia = tested on: SR leukemia
UO-31 renal = tested on: UO-31 renal
CCRF-CEM leukemia = tested on: CCRF-CEM leukemia
HCT-116 colon = tested on: HCT-116 colon
ACHN renal = tested on: ACHN renal
COLO 205 colon = tested on: COLO 205 colon
NCI-H226 lung = tested on: NCI-H226 lung
DU-145 prostate = tested on: DU-145 prostate
SF-539 CNS = tested on: SF-539 CNS
M14 melanoma = tested on: M14 melanoma
TK-10 renal = tested on: TK-10 renal
LOX IMVI melanoma = tested on: LOX IMVI melanoma
U251 CNS = tested on: U251 CNS
PC-3 prostate = tested on: PC-3 prostate
HOP-62 NSCLC = tested on: HOP-62 NSCLC
A549 NSCLC = tested on: A549 NSCLC
SK-MEL-28 melanoma = tested on: SK-MEL-28 melanoma
HCT-15 colon = tested on: HCT-15 colon
SNB-75 CNS = tested on: SNB-75 CNS
MCF7 breast = tested on: MCF7 breast
MDA-MB-435 = tested on: MDA-MB-435
T-47D breast = tested on: T-47D breast
HOP-92 NSCLC = tested on: HOP-92 NSCLC
RPMI-8226 leukemia = tested on: RPMI-8226 leukemia
A498 renal = tested on: A498 renal
OVCAR-5 ovarian = tested on: OVCAR-5 ovarian
MDA-N = tested on: MDA-N
NCI-H23 lung = tested on: NCI-H23 lung
SW-620 colon = tested on: SW-620 colon
SNB-19 CNS = tested on: SNB-19 CNS
NCI/ADR-RES ovarian = tested on: NCI/ADR-RES ovarian
SN12C renal = tested on: SN12C renal
OVCAR-8 ovarian = tested on: OVCAR-8 ovarian
UACC-62 melanoma = tested on: UACC-62 melanoma
HL-60(TB) leukemia = tested on: HL-60(TB) leukemia
K-562 leukemia = tested on: K-562 leukemia
NCI-H460 lung = tested on: NCI-H460 lung
MDA-MB-231 breast = tested on: MDA-MB-231 breast
HT29 colon = tested on: HT29 colon
NCI-H522 lung = tested on: NCI-H522 lung
IGROV1 ovarian = tested on: IGROV1 ovarian
OVCAR-3 ovarian = tested on: OVCAR-3 ovarian
CAKI-1 renal = tested on: CAKI-1 renal
EKVX NSCLC = tested on: EKVX NSCLC
RXF 393 renal = tested on: RXF 393 renal
SF-295 CNS = tested on: SF-295 CNS
KM12 colon = tested on: KM12 colon
OVCAR-4 ovarian = tested on: OVCAR-4 ovarian
UACC-257 melanoma = tested on: UACC-257 melanoma
MALME-3M melanoma = tested on: MALME-3M melanoma
BT-549 breast = tested on: BT-549 breast

Cc1ccc2nc(-c3ccc(-c4nc5ccc(C)cc5o4)c(O)c3)oc2c1
> 100 µM: TGI (HS 578T breast) | TGI (SK-MEL-5 melanoma) | TGI (SK-MEL-2 melanoma) | TGI (SK-OV-3 ovarian) | TGI (HCC-2998 colon) | TGI (MOLT-4 leukemia) | TGI (786-0 renal) | TGI (SF-268 CNS) | TGI (SR leukemia) | TGI (UO-31 renal) | TGI (CCRF-CEM leukemia) | TGI (HCT-116 colon) | TGI (ACHN renal) | TGI (COLO 205 colon) | TGI (NCI-H226 lung) | TGI (DU-145 prostate) | TGI (SF-539 CNS) | TGI (M14 melanoma) | TGI (TK-10 renal) | TGI (LOX IMVI melanoma) | TGI (U251 CNS) | TGI (PC-3 prostate) | TGI (HOP-62 NSCLC) | TGI (A549 NSCLC) | TGI (SK-MEL-28 melanoma) | TGI (HCT-15 colon) | TGI (SNB-75 CNS) | TGI (MCF7 breast) | TGI (MDA-MB-435) | TGI (T-47D breast) | TGI (HOP-92 NSCLC) | TGI (RPMI-8226 leukemia) | TGI (A498 renal) | TGI (OVCAR-5 ovarian) | TGI (MDA-N) | TGI (NCI-H23 lung) | TGI (SW-620 colon) | TGI (SNB-19 CNS) | TGI (NCI/ADR-RES ovarian) | TGI (SN12C renal) | TGI (OVCAR-8 ovarian) | TGI (UACC-62 melanoma) | TGI (HL-60(TB) leukemia) | TGI (K-562 leukemia) | TGI (NCI-H460 lung) | TGI (MDA-MB-231 breast)

O=C(CSc1nc2ccc(I)cc2c(=O)n1Cc1ccccc1)NN1C(=O)CSC1c1ccccc1 (stereo unspecified)
57.5 µM: TGI (UACC-257 melanoma)
50.8 µM: TGI (SK-MEL-2 melanoma)
86 µM: TGI (TK-10 renal)
46.9 µM: TGI (HOP-92 NSCLC)
84.4 µM: TGI (M14 melanoma)
58.9 µM: TGI (HL-60(TB) leukemia)
86.2 µM: TGI (EKVX NSCLC)
34.6 µM: TGI (COLO 205 colon)
43.2 µM: TGI (NCI-H23 lung)
42.1 µM: TGI (MCF7 breast)
35.5 µM: TGI (NCI-H522 lung)
36.3 µM: TGI (NCI-H460 lung)
55.6 µM: TGI (IGROV1 ovarian)
69.5 µM: TGI (U251 CNS)
57.4 µM: TGI (RXF 393 renal)
32.4 µM: TGI (OVCAR-3 ovarian)
70.7 µM: TGI (SF-539 CNS)
48.5 µM: TGI (HOP-62 NSCLC)
67.9 µM: TGI (SK-OV-3 ovarian)
39.1 µM: TGI (LOX IMVI melanoma)
79.1 µM: TGI (SF-268 CNS)
40.5 µM: TGI (HCT-15 colon)
10.9 µM: TGI (CAKI-1 renal)
76.1 µM: TGI (OVCAR-4 ovarian)
53.2 µM: TGI (HCC-2998 colon)
65.6 µM: TGI (MDA-MB-231 breast)
92.5 µM: TGI (T-47D breast)
56.1 µM: TGI (HCT-116 colon) | TGI (SN12C renal)
78.1 µM: TGI (DU-145 prostate)
33.1 µM: TGI (ACHN renal)
54.9 µM: TGI (KM12 colon)
95.9 µM: TGI (SK-MEL-28 melanoma)
36.7 µM: TGI (UACC-62 melanoma)
42.6 µM: TGI (SK-MEL-5 melanoma)
69.6 µM: TGI (MDA-MB-435)
57.2 µM: TGI (NCI/ADR-RES ovarian)
76 µM: TGI (SF-295 CNS)
> 100 µM: TGI (HT29 colon) | TGI (MOLT-4 leukemia) | TGI (786-0 renal) | TGI (SR leukemia) | TGI (CCRF-CEM leukemia) | TGI (NCI-H226 lung) | TGI (PC-3 prostate) | TGI (A549 NSCLC) | TGI (SNB-75 CNS) | TGI (RPMI-8226 leukemia) | TGI (OVCAR-5 ovarian) | TGI (MDA-N) | TGI (SW-620 colon) | TGI (SNB-19 CNS) | TGI (OVCAR-8 ovarian) | TGI (K-562 leukemia)

O=C1Nc2ccc(CN3CCOC3=O)cc2/C1=C/c1cc(CN2CCOCC2)c[nH]1
> 92.3 µM: TGI (HOP-92 NSCLC)
> 93.9 µM: TGI (M14 melanoma)
> 94.7 µM: TGI (UO-31 renal)
53.7 µM: TGI (RPMI-8226 leukemia)
78.7 µM: TGI (MOLT-4 leukemia)
> 100 µM: TGI (HT29 colon) | TGI (HS 578T breast) | TGI (SK-MEL-2 melanoma) | TGI (SK-OV-3 ovarian) | TGI (HCC-2998 colon) | TGI (786-0 renal) | TGI (MALME-3M melanoma) | TGI (SF-268 CNS) | TGI (NCI-H522 lung) | TGI (CCRF-CEM leukemia) | TGI (IGROV1 ovarian) | TGI (HCT-116 colon) | TGI (ACHN renal) | TGI (COLO 205 colon) | TGI (NCI-H226 lung) | TGI (DU-145 prostate) | TGI (SF-539 CNS) | TGI (OVCAR-3 ovarian) | TGI (CAKI-1 renal) | TGI (EKVX NSCLC) | TGI (TK-10 renal) | TGI (LOX IMVI melanoma) | TGI (U251 CNS) | TGI (PC-3 prostate) | TGI (HOP-62 NSCLC) | TGI (A549 NSCLC) | TGI (SK-MEL-28 melanoma) | TGI (HCT-15 colon) | TGI (SNB-75 CNS) | TGI (MDA-MB-435) | TGI (SF-295 CNS) | TGI (KM12 colon) | TGI (A498 renal) | TGI (OVCAR-5 ovarian) | TGI (NCI-H23 lung) | TGI (SW-620 colon) | TGI (OVCAR-4 ovarian) | TGI (SNB-19 CNS) | TGI (NCI/ADR-RES ovarian) | TGI (SN12C renal) | TGI (UACC-257 melanoma) | TGI (OVCAR-8 ovarian) | TGI (UACC-62 melanoma) | TGI (K-562 leukemia) | TGI (NCI-H460 lung) | TGI (MDA-MB-231 breast)
> 72.3 µM: TGI (RXF 393 renal)
inactive: GI50 (HT29 colon) 34.6 µM | GI50 (HS 578T breast) > 69.8 µM | GI50 (SK-MEL-5 melanoma) 19.5 µM | GI50 (SK-MEL-2 melanoma) 39.2 µM | GI50 (SK-OV-3 ovarian) 98.9 µM | GI50 (HCC-2998 colon) 61 µM | GI50 (MOLT-4 leukemia) 28.5 µM | GI50 (786-0 renal) 62.5 µM | GI50 (MALME-3M melanoma) > 71.5 µM | GI50 (SF-268 CNS) > 86.5 µM | GI50 (SR leukemia) 7.43 µM | GI50 (NCI-H522 lung) 36.1 µM | GI50 (UO-31 renal) 21.5 µM | GI50 (CCRF-CEM leukemia) 35.4 µM | GI50 (IGROV1 ovarian) 50.6 µM | GI50 (HCT-116 colon) 37.2 µM | GI50 (ACHN renal) 56 µM | GI50 (COLO 205 colon) 38.6 µM | GI50 (NCI-H226 lung) 28.1 µM | GI50 (DU-145 prostate) > 100 µM | GI50 (SF-539 CNS) 53.9 µM | GI50 (M14 melanoma) 34 µM | GI50 (OVCAR-3 ovarian) 47.6 µM | GI50 (CAKI-1 renal) 26.3 µM | GI50 (EKVX NSCLC) 37.5 µM | GI50 (TK-10 renal) 65.5 µM | GI50 (RXF 393 renal) 18.3 µM | GI50 (LOX IMVI melanoma) 48.4 µM | GI50 (U251 CNS) > 75.6 µM | GI50 (PC-3 prostate) 36.9 µM | GI50 (HOP-62 NSCLC) 42.7 µM | GI50 (A549 NSCLC) 49.7 µM | GI50 (SK-MEL-28 melanoma) 58 µM | GI50 (HCT-15 colon) 29.4 µM | GI50 (SNB-75 CNS) 52.8 µM | GI50 (MCF7 breast) 24.1 µM | GI50 (MDA-MB-435) 18.7 µM | GI50 (T-47D breast) 24.9 µM | GI50 (HOP-92 NSCLC) 32 µM | GI50 (RPMI-8226 leukemia) 19.2 µM | GI50 (SF-295 CNS) 2.16 µM | GI50 (KM12 colon) 4.08 µM | GI50 (A498 renal) > 45.2 µM | GI50 (OVCAR-5 ovarian) > 100 µM | GI50 (NCI-H23 lung) 32.5 µM | GI50 (SW-620 colon) 37.9 µM | GI50 (OVCAR-4 ovarian) 26.6 µM | GI50 (SNB-19 CNS) 98.7 µM | GI50 (NCI/ADR-RES ovarian) 34.6 µM | GI50 (SN12C renal) 45.4 µM | GI50 (UACC-257 melanoma) 52 µM | GI50 (OVCAR-8 ovarian) 33.7 µM | GI50 (UACC-62 melanoma) 34.4 µM | GI50 (HL-60(TB) leukemia) 25.1 µM | GI50 (K-562 leukemia) 27.3 µM | GI50 (BT-549 breast) 23.5 µM | GI50 (NCI-H460 lung) 36.2 µM | GI50 (MDA-MB-231 breast) 78.8 µM
> 80.7 µM: TGI (HL-60(TB) leukemia)
> 88.3 µM: TGI (T-47D breast)
> 91.9 µM: TGI (MCF7 breast)
> 79.5 µM: TGI (BT-549 breast)
43.5 µM: TGI (SK-MEL-5 melanoma)
73.9 µM: TGI (SR leukemia)
